# Assay results from ChEMBL document CHEMBL1201862, “PubChem BioAssay data set” (2004).
#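 Cultured in 96-well plates, cells were exposed to test compound for 48 hours across five concentrations. GI50 is the concentration that inhibits growth by half.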 Activity calls are given as the source filed them. No stated cut-off is given here; in the data, active = GI50 up to about 1.1 µM and inactive = higher.
# Key:
# Experiment in all cases: growth of human tumour cells (NCI), 48 h
# PC-3 = system: PC-3
# LOX IMVI = system: LOX IMVI
# IGROV-1 = system: IGROV-1
# A549 = system: A549
# NCI-H460 = system: NCI-H460
# NCI-H23 = system: NCI-H23
# MCF7 = system: MCF7
# HT-29 = system: HT-29
# EKVX = system: EKVX
# SF-539 = system: SF-539
# COLO 205 = system: COLO 205
# Hs-578T = system: Hs-578T
# SR = system: SR
# SK-MEL-28 = system: SK-MEL-28
# SK-MEL-5 = system: SK-MEL-5
# HOP-62 = system: HOP-62
# Malme-3M = system: Malme-3M
# TK-10 = system: TK-10
# OVCAR-3 = system: OVCAR-3
# M14 = system: M14
# SN12C = system: SN12C
# SK-MEL-2 = system: SK-MEL-2
# KM12 = system: KM12
# HOP-92 = system: HOP-92
# OVCAR-4 = system: OVCAR-4
# ACHN = system: ACHN
# MOLT-4 = system: MOLT-4
# BT-549 = system: BT-549
# SW-620 = system: SW-620
# NCI-H522 = system: NCI-H522
# UO-31 = system: UO-31
# UACC-62 = system: UACC-62
# UACC-257 = system: UACC-257
# CAKI-1 = system: CAKI-1
# NCI-H226 = system: NCI-H226
# CCRF-CEM = system: CCRF-CEM
# U-251 = system: U-251
# 786-0 = system: 786-0
# MDA-MB-435 = system: MDA-MB-435
# SK-OV-3 = system: SK-OV-3
# SNB-19 = system: SNB-19
# MDA-N = system: MDA-N
# HCC 2998 = system: HCC 2998
# HCT-116 = system: HCT-116
# SF-295 = system: SF-295
# RXF 393 = system: RXF 393
# A498 = system: A498
# RPMI-8226 = system: RPMI-8226
# MDA-MB-231 = system: MDA-MB-231
# SF-268 = system: SF-268
# OVCAR-5 = system: OVCAR-5
# OVCAR-8 = system: OVCAR-8
# DU-145 = system: DU-145
# HCT-15 = system: HCT-15
# T47D = system: T47D
# HL-60 = system: HL-60
# SNB-75 = system: SNB-75
# NCI/ADR-RES = system: NCI/ADR-RES
# K562 = system: K562
smiles,measurement,setting,value
CCN(CC)CCN1CCN=c2c3cc(OC)ccc3n3cnc4ccc1c2c43,GI50,PC-3,0.391 µM (active)
same,GI50,LOX IMVI,0.311 µM (active)
same,GI50,IGROV-1,0.357 µM (active)
same,GI50,A549,0.425 µM (active)
same,GI50,NCI-H460,0.199 µM (active)
same,GI50,NCI-H23,0.713 µM (active)
same,GI50,MCF7,0.171 µM (active)
same,GI50,HT-29,0.0859 µM (active)
same,GI50,EKVX,1.01 µM (active)
same,GI50,SF-539,0.323 µM (active)
same,GI50,COLO 205,0.362 µM (active)
same,GI50,Hs-578T,1.63 µM (inactive)
same,GI50,SR,0.174 µM (active)
same,GI50,SK-MEL-28,1.5 µM (inactive)
same,GI50,SK-MEL-5,1.4 µM (inactive)
same,GI50,HOP-62,0.979 µM (active)
same,GI50,Malme-3M,1.22 µM (inactive)
same,GI50,TK-10,1.07 µM (active)
same,GI50,OVCAR-3,0.946 µM (active)
same,GI50,M14,0.719 µM (active)
same,GI50,SN12C,0.429 µM (active)
same,GI50,SK-MEL-2,0.587 µM (active)
same,GI50,KM12,0.367 µM (active)
same,GI50,HOP-92,1.12 µM (inactive)
same,GI50,OVCAR-4,0.274 µM (active)
same,GI50,ACHN,0.339 µM (active)
same,GI50,MOLT-4,0.0385 µM (active)
same,GI50,BT-549,1.27 µM (inactive)
same,GI50,SW-620,0.0456 µM (active)
same,GI50,NCI-H522,1.49 µM (inactive)
same,GI50,UO-31,1.41 µM (inactive)
same,GI50,UACC-62,1.71 µM (inactive)
same,GI50,UACC-257,1.29 µM (inactive)
same,GI50,CAKI-1,0.621 µM (active)
same,GI50,NCI-H226,1.54 µM (inactive)
same,GI50,CCRF-CEM,0.218 µM (active)
same,GI50,U-251,0.789 µM (active)
same,GI50,786-0,0.272 µM (active)
same,GI50,MDA-MB-435,0.522 µM (active)
same,GI50,SK-OV-3,1.6 µM (inactive)
same,GI50,SNB-19,0.481 µM (active)
same,GI50,MDA-N,0.49 µM (active)
same,GI50,HCC 2998,0.585 µM (active)
same,GI50,HCT-116,0.3 µM (active)
same,GI50,SF-295,0.548 µM (active)
same,GI50,RXF 393,0.292 µM (active)
same,GI50,A498,0.746 µM (active)
same,GI50,RPMI-8226,0.305 µM (active)
same,GI50,MDA-MB-231,0.483 µM (active)
same,GI50,SF-268,0.466 µM (active)
same,GI50,OVCAR-5,0.736 µM (active)
same,GI50,OVCAR-8,0.318 µM (active)
same,GI50,DU-145,0.7 µM (active)
same,GI50,HCT-15,0.211 µM
same,GI50,T47D,5.52 µM (inactive)
same,GI50,HL-60,0.43 µM (active)
same,GI50,SNB-75,0.714 µM (active)
same,GI50,NCI/ADR-RES,0.475 µM (active)
same,GI50,K562,0.2 µM (active)
COc1ccc2c(-c3ccc(O)cc3)c(Oc3ccccc3)c(=O)oc2c1,GI50,PC-3,> 66.5 µM (inactive)
same,GI50,LOX IMVI,8.61 µM (inactive)
same,GI50,IGROV-1,3.78 µM (inactive)
same,GI50,A549,8.17 µM (inactive)
same,GI50,NCI-H460,11.9 µM (inactive)
same,GI50,NCI-H23,2.63 µM (inactive)
same,GI50,MCF7,4.61 µM (inactive)
same,GI50,HT-29,11.7 µM (inactive)
same,GI50,EKVX,4.89 µM (inactive)
same,GI50,SF-539,24.7 µM (inactive)
same,GI50,COLO 205,> 100 µM (inactive)
same,GI50,Hs-578T,> 50 µM (inactive)
same,GI50,SR,3.24 µM (inactive)
same,GI50,SK-MEL-28,96.8 µM (inactive)
same,GI50,SK-MEL-5,3.95 µM (inactive)
same,GI50,HOP-62,31.1 µM (inactive)
same,GI50,Malme-3M,9.44 µM (inactive)
same,GI50,TK-10,3.74 µM (inactive)
same,GI50,OVCAR-3,5.4 µM (inactive)
same,GI50,M14,> 100 µM (inactive)
same,GI50,SK-MEL-2,> 100 µM (inactive)
same,GI50,KM12,14.6 µM (inactive)
same,GI50,HOP-92,12 µM (inactive)
same,GI50,OVCAR-4,9.62 µM (inactive)
same,GI50,ACHN,> 34.4 µM (inactive)
same,GI50,MOLT-4,5.11 µM (inactive)
same,GI50,BT-549,95.9 µM (inactive)
same,GI50,NCI-H522,8.2 µM (inactive)
same,GI50,UO-31,3.13 µM (inactive)
same,GI50,UACC-62,> 24.4 µM (inactive)
same,GI50,UACC-257,> 100 µM (inactive)
same,GI50,CAKI-1,2.72 µM (inactive)
same,GI50,NCI-H226,29.9 µM (inactive)
same,GI50,CCRF-CEM,3.96 µM (inactive)
same,GI50,U-251,> 22.9 µM (inactive)
same,GI50,786-0,12.3 µM (inactive)
same,GI50,MDA-MB-435,> 100 µM (inactive)
same,GI50,SK-OV-3,6.49 µM (inactive)
same,GI50,MDA-N,> 100 µM (inactive)
same,GI50,HCC 2998,18.3 µM (inactive)
same,GI50,HCT-116,> 23.2 µM (inactive)
same,GI50,SF-295,25.5 µM (inactive)
same,GI50,RXF 393,11.8 µM (inactive)
same,GI50,A498,> 31.4 µM (inactive)
same,GI50,RPMI-8226,2.62 µM (inactive)
same,GI50,MDA-MB-231,18.8 µM (inactive)
same,GI50,SF-268,> 32.9 µM (inactive)
same,GI50,OVCAR-5,> 24.4 µM (inactive)
same,GI50,OVCAR-8,16.2 µM (inactive)
same,GI50,DU-145,4.58 µM (inactive)
same,GI50,HCT-15,5.04 µM
same,GI50,T47D,> 28 µM (inactive)
same,GI50,HL-60,7.96 µM (inactive)
same,GI50,SNB-75,> 33.9 µM (inactive)
same,GI50,NCI/ADR-RES,14.2 µM (inactive)
same,GI50,K562,8.91 µM (inactive)
